Key:
[1] = biological target: Casein kinase I isoform gamma-2 (Homo sapiens) (UniProt P78368); assay: Selectivity interaction (KinomeScan (DiscoverX)) EUB0000666a CSNK1G2; details: at 10 µM
[2] = biological target: Tyrosine-protein kinase Fer (Homo sapiens) (UniProt P16591); assay: Selectivity interaction (Kinase panel (KiNativ target engagement assay in Jurkat cells)) EUB0001635a FER; format: cell-based; details: Selectivity number of off-targets 0.0, Selectivity number of targets 233.0, Source Knowledge https://www.sciencedirect.com/science/article/pii/S2451945619300674?via%3Dihub, at 1 µM
Sequence of Tyrosine-protein kinase Fer (Homo sapiens) (P16591 whole entry, looked up): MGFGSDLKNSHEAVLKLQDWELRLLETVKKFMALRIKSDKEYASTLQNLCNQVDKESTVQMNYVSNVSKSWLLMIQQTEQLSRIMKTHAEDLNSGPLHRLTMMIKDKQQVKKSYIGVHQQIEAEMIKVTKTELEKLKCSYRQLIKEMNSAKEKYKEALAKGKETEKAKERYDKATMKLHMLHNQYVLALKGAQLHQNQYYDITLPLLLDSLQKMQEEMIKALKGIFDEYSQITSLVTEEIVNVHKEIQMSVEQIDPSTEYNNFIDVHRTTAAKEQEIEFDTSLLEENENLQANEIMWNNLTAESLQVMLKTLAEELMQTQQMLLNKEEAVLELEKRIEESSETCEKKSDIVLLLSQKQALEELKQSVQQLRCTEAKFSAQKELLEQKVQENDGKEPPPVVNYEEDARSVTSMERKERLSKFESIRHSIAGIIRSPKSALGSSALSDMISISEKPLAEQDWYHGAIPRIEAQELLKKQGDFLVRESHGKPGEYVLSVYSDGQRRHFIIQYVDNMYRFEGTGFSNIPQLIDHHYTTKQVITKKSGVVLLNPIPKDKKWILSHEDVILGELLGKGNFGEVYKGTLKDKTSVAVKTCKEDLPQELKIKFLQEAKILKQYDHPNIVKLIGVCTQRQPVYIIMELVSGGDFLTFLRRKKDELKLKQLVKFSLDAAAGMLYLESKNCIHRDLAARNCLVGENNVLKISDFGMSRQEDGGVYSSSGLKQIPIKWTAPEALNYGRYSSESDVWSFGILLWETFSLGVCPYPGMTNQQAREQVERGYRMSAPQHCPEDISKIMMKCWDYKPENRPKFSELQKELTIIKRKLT

[3] = biological target: T1, Aurora kinase A (Homo sapiens) (UniProt O14965); assay: Selectivity interaction (KinomeScan (DiscoverX)) EUB0000092b STK6; details: at 10 µM
T1 sequence (whole entry): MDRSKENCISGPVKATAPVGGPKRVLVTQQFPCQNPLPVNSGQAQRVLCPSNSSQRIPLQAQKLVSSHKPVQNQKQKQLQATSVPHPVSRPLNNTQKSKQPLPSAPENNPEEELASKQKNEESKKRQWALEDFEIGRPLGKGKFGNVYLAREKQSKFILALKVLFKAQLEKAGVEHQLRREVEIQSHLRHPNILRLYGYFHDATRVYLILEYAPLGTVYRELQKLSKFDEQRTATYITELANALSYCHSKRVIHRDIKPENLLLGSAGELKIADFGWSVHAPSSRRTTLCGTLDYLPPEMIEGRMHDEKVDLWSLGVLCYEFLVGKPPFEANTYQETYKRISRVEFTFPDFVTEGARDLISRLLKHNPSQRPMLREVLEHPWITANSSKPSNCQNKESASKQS

[4] = biological target: T2, Mitogen-activated protein kinase kinase kinase 15 (Homo sapiens) (UniProt Q6ZN16); details: at 10 µM
T2 sequence (whole entry): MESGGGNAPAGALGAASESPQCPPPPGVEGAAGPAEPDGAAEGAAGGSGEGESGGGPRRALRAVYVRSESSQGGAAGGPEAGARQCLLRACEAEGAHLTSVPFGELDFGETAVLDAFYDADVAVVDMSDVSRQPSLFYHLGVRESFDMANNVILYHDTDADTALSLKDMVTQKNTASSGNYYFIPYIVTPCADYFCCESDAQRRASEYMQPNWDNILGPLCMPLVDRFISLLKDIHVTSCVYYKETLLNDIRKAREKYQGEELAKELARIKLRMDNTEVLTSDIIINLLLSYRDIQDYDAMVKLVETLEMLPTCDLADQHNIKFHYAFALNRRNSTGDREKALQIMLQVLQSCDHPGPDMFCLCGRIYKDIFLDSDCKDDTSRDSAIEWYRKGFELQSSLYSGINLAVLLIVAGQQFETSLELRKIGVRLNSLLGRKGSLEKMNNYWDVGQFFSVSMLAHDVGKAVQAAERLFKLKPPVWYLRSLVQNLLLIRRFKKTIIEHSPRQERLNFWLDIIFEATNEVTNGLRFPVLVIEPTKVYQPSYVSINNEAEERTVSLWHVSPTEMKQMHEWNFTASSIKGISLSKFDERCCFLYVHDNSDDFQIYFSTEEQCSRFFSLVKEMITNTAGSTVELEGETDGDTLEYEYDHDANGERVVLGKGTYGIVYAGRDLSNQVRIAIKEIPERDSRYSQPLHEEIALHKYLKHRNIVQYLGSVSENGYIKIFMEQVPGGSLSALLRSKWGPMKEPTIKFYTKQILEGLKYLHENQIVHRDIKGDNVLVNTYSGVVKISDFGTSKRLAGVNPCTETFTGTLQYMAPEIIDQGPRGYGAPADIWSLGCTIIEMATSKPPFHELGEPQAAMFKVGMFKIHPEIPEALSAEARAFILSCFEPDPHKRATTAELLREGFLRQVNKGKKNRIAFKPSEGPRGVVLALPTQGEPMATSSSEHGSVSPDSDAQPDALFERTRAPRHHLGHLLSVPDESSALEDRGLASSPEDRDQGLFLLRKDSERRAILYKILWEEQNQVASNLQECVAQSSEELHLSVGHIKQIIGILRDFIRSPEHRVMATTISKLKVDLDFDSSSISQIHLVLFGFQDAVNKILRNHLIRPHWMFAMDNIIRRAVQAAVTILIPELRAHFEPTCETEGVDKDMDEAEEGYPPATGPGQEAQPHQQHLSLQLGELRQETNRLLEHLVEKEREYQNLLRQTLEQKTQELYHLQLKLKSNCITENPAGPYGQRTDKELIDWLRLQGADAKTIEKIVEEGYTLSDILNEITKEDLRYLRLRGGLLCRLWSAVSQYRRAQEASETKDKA

[5] = biological target: Myosin light chain kinase, smooth muscle (Homo sapiens, UniProt Q15746); assay: Selectivity interaction (KinomeScan (DiscoverX)) EUB0001619a MYLK; details: at 1 µM
Sequence of Myosin light chain kinase, smooth muscle (Q15746 whole entry): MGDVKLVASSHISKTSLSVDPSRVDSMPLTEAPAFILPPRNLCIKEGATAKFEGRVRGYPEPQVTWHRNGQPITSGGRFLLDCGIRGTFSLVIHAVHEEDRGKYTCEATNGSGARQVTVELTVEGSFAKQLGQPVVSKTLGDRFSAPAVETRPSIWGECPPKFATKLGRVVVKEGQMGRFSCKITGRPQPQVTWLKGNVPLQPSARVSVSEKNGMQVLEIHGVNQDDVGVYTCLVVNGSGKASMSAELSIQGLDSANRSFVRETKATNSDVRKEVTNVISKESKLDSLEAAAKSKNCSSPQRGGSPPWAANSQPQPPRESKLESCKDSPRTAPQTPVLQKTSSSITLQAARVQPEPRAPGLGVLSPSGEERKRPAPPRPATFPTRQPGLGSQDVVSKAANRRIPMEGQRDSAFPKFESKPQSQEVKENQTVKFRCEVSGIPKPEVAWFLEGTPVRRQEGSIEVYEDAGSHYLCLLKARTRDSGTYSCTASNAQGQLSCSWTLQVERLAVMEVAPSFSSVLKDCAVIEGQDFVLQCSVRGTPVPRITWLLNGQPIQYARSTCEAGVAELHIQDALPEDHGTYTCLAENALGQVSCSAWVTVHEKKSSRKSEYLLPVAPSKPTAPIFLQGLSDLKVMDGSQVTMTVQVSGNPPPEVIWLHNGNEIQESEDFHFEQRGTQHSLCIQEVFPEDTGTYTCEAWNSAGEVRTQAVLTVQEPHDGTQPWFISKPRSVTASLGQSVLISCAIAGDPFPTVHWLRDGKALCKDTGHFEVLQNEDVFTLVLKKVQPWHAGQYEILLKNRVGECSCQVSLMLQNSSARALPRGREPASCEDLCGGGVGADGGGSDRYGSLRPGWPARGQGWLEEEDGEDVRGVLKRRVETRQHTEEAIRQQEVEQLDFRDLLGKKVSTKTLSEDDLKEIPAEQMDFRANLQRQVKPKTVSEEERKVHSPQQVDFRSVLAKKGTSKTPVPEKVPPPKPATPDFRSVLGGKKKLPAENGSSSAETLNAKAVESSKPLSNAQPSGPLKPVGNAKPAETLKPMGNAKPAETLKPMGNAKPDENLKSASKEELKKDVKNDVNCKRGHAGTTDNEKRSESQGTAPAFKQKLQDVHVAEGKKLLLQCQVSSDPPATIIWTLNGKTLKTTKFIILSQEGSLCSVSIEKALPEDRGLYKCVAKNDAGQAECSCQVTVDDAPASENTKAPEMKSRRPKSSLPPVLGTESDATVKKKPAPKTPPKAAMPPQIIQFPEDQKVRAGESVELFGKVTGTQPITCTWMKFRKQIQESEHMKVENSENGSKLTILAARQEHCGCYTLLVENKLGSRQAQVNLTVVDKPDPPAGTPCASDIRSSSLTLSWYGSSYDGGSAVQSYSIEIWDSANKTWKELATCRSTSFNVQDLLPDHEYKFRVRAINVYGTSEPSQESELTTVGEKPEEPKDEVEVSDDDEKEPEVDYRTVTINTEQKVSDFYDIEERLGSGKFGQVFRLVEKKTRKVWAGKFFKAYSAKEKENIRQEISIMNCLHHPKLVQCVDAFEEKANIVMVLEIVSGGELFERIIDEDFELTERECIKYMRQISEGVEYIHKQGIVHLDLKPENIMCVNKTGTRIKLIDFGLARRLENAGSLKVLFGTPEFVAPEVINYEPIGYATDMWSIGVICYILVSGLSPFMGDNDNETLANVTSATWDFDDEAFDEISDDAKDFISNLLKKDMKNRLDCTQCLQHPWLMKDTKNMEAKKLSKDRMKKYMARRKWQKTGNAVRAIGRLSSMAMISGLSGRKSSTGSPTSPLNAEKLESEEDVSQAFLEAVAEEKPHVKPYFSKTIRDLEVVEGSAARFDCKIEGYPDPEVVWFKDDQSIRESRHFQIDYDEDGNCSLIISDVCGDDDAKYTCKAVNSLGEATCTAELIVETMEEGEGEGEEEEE

[6] = biological target: T3, Protein kinase C epsilon type (Homo sapiens) (UniProt Q02156); assay: Selectivity interaction (ProQinase) EUB0000171b PRKCE
T3 sequence (whole entry): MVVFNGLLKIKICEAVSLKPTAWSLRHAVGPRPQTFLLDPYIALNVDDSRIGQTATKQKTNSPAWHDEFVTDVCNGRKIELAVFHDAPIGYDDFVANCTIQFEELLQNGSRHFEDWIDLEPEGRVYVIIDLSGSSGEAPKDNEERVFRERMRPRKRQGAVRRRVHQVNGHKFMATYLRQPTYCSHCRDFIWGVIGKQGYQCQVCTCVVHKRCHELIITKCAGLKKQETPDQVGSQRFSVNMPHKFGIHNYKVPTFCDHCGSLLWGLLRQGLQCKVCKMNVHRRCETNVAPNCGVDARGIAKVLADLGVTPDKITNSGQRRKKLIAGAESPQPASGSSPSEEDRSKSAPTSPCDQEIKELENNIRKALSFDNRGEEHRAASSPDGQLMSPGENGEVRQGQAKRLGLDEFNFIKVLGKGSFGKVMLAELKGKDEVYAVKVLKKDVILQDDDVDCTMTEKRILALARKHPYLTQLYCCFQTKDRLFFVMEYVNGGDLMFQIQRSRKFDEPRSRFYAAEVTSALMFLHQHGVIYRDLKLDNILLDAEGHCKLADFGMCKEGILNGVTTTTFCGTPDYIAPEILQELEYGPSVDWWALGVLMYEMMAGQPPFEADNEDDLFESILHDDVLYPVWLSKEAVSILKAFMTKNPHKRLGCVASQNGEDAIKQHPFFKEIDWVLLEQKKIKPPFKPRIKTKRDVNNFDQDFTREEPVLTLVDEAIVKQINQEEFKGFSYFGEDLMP

Sequence of Casein kinase I isoform gamma-2 (Homo sapiens) (P78368 whole entry, looked up, canonical isoform): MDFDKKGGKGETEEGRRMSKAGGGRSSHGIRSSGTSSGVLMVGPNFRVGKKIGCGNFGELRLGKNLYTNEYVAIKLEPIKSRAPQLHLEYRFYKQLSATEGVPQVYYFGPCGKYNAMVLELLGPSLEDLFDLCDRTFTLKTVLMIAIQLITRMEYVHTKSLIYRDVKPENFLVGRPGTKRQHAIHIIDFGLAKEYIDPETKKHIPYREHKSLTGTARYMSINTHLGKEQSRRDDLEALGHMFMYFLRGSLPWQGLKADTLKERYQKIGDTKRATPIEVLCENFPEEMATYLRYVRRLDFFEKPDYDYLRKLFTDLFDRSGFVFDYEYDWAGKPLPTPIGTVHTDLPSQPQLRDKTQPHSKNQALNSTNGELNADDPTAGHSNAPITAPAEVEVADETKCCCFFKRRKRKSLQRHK

O=C(NOC[C@H](O)CO)c1ccc(F)c(F)c1Nc1ccc(I)cc1F
% of control [1]: 95%

C=CC(=O)Nc1ccc(C(=O)Nc2[nH]nc3c2CN(C(=O)N[C@H](CN(C)C)c2ccccc2)C3(C)C)cc1
% of engagement [2]: -2.6%

CCC(=O)N1CCN(c2ccc(-n3c(=O)ccc4cnc5ccc(-c6cnc7ccccc7c6)cc5c43)cc2C(F)(F)F)CC1
% of control [3]: 100%

Cc1cc([C@@H](C)Nc2ccccc2C(=O)O)c2nc(N3CCOCC3)cc(=O)n2c1 [AZD-6482]
% of control [4]: 87%

N#Cc1cccc(-c2c[nH]c3ncnc(N4CCOCC4)c23)c1
% of control [5]: 100%

C=CC(=O)Nc1cccc(C(=O)Nc2ccc(Nc3cc(-c4[nH]c(SC)nc4C)ccn3)cc2)c1
% of control ([6]; at 1 µM): 97%
% of control ([6]; at 5 µM): 108%

Reference: ChEMBL document CHEMBL5465560, “Selectivity Literature for EUbOPEN Chemogenomic Library” (2024)
